# What was measured:
# [1] = target: Integrin αMβ2 (human, MAC1, on monocyte-derived myofibroblasts) (human) (UniProt P11215); assay: cell-based or functional assay
# talin1 and talin2 = conditions: literature [83]; cited from earlier work
# [2] = test system: human monocyte-myofibroblast differentiation; assay: Human monocyte-myofibroblast de-differentiation assessed by morphology; assay type: cell-based; conditions: added to culture of human monocyte-myofibroblasts (FIG. 1A, 1B)
# Procedure: Monocytes were purified from PBMCs by use of a negative selection kit for human monocytes (Stemcell, Cambridge, MA), per the manufacturer's instructions. Approximately 20 million monocytes were purified from each filter. Monocytes were then washed by PBS using five successive 300×G centrifugation steps, in order to remove EDTA from the resulting population. Monocytes were checked for purity using flow cytometry, and average purity was above 95%. Monocytes were cultured immediately following purification, at 100,000 monocytes/cm^2.
# (§1) Human and mouse monocytes were cultured as previously described, using serum-free media (SFM). Briefly, SFM for human cells is composed of fibrolife (Lifeline, Frederick, MD), with 1× ITS-3 (Sigma, St. Louis, MO), 1× HEPES buffer (Sigma), 1× non-essential amino acids (Sigma), 1× sodium pyruvate (Sigma), and penicillin-streptomycin with glutamate (Sigma). For mouse monocytes, 2× concentrations of ITS-3, HEPES buffer, non-essential amino acids, and sodium pyruvate were added, with 50 μM β-mercaptoenthanol (ThermoFisher) and pro-fibrotic supplements M-CSF (25 ng/ml, Peprotech, Rocky Hill, NJ) and IL-13 (50 ng/ml) to induce myofibroblast differentiation. Additionally, M-CSF and IL-13 were refreshed in the media of mouse monocytes after 3 days of culture. Monocytes were allowed to differentiate for 5 days, and counted based on morphology as previously described. […]
# [3] = test system: human monocyte-derived myofibroblasts; assay: Legendplex ELISA of conditioned media, human monocyte-derived myofibroblasts; assay type: cell-based; conditions: antibody 500 ng/ml, leukadherin 2 ng/ml
# Procedure: Supernatant from cultured human and mouse myofibroblasts were thawed at 4 C, and centrifuged at 4 C and 10,000×G to pellet cell debris. Supernatant was taken and added to 96 well round bottom plates, in duplicate. Legendplex (Biolegend) beads against general inflammation markers were added, according to the manufacturer's instructions. Sample readouts were normalized to each individual donor control.
# [4] = test system: mouse monocyte-derived myofibroblasts; assay: Flow cytometry of mouse monocyte-derived myofibroblasts treated with antibodies or leukadherin; assay type: cell-based; conditions: antibody 500 ng/ml
# From the text: (§2) Myofibroblasts were de-differentiated by addition of antibodies (α-αMβ2, α-αM, α-α3) for 7 days after the 5 day differentiation was completed. Antibodies were free of azide, glycerol, and other preservatives.
# (§3) Cultured myofibroblasts were lifted with ice cold trypsin-EDTA (Sigma), followed by mechanical agitation by a rubber policeman. Myofibroblasts were fixed and permeabilized using Cytofix/Cytoperm (BD biosciences, Franklin Lakes, NJ), and live-dead stained (live-dead aqua, ThermoFisher) per manufacturer's instructions. Antibodies used were α-collagen I (Biolegend, San Diego, CA), anti-α smooth muscle actin (αSMA) (R and D systems, Minneapolis, MN), α-ki-67 (BD biosciences), and α-talin2 (R and D systems). Compensation was performed via UltraComp beads (ThermoFisher) per the manufacturer's instructions.
# [5] = test system: mouse monocyte-derived myofibroblasts; assay: Mouse monocyte-derived myofibroblast de-differentiation assessed by morphology; assay type: cell-based; conditions: 1 week (FIG. 2A, 2B)
# From the text: Spleens were pushed through a 100 µm filter to disassociate the cells. Monocytes were purified from disassociated cells by use of a negative selection kit (Stemcell), following the manufacturer's instructions. The purified monocytes were then washed by PBS using five successive 300×G centrifugation steps, in order to remove EDTA from the resulting population. Monocytes were checked for purity using flow cytometry, and average purity was above 95%. The average yield was 1.5 million monocytes per spleen. Monocytes were cultured immediately following purification, at 250,000 monocytes/cm^2.
# as §1, with “Additionally, M-CSF and IL-13 were refreshed in the media of mouse monocytes after 3 days of culture.” left out
# [6] = test system: human monocyte-derived myofibroblasts; assay: Flow cytometry of human monocyte-derived myofibroblasts treated with antibodies or leukadherin; assay type: cell-based; conditions: antibody 500 ng/ml, leukadherin 2 ng/ml
# From the text: as §2, §3
# fibrosis = conditions: literature [4], [6]; cited from earlier work
# [7] = target: Integrin-αM (human, on monocyte-derived myofibroblasts) (human) (UniProt P11215); assay: cell-based or functional assay
# [8] = test system: bleomycin insult to mouse lungs; assay: Bleomycin lung fibrosis model, lung instillation of talin2 siRNA; assay type: in vivo
# [9] = test system: mouse fibroblast-derived myofibroblasts; assay: Flow cytometry of mouse fibroblast-derived myofibroblasts treated with siRNA; assay type: cell-based; conditions: 50 nM siRNA
# Procedure: Human fibroblasts (MRC-5, ATCC, Manassas, VA) and mouse fibroblasts (NIH-3T3, ATCC) were cultured in SFM composed for human cells, with 1× concentrations of additives. TGF-b (Peprotech) was added to induce myofibroblast formation at 5 ng/ml. Cells were cultured at 10,000/cm^2, and TGF-β was refreshed in cultures weekly to maintain the myofibroblast phenotype.
# The SMARTpool of siRNA targeting human talin2 contained four target sequences, while the anti-parallel corresponding siRNA sequences actually silenced the mRNA. Target sequences: #1 (CCAGAAAACUGAACGAUUA) (SEQ ID NO:29), #2 (GCCCUGUCCUUAAAGAUUU) (SEQ ID NO:30), #3 (CGACUGUGGUUAAAUACUC) (SEQ ID NO:31), and #4 (CGAGAAAGCUUGUGAGUUU) (SEQ ID NO:32). SMARTpool targeting mouse talin2 also contained four target sequences: #1 […], #2 (CUGGAAAAUUCAGUGAUGA) (SEQ ID NO:26), #3 (CCCUGGAUUUUGAAGAACA) (SEQ ID NO:27), and #4 (CCAUCGAGUACAUAAAACA) (SEQ ID NO:28). Control non-targeting SMARTpools contained 4 target sequences, including: #1 (CCAGAAAACUGAACGAUUA) (SEQ ID NO:29), #2 (GCCCUGUCCUUAAAGAUUU) (SEQ ID NO:30), #3 (CGACUGUGGUUAAAUACUC) (SEQ ID NO:31), and #4 (CGAGAAAGCUUGUGAGUUU) (SEQ ID NO:32). Individual siRNA tested in mice was talin2 siRNA #2, target: 5′ CUGGAAAAUUCAGUGAUGA 3′ (SEQ ID NO:26), anti-sense: 5′ UCAUCACUGAAUUUUCCAG 3′ (SEQ ID NO:37). […]
# [10] = test system: mouse monocyte-derived myofibroblasts; assay: Flow cytometry of mouse monocyte-derived myofibroblasts treated with siRNA; assay type: cell-based; conditions: 50 nM siRNA mixtures or individual siRNAs (FIG. 27D)
# Procedure: Human and mouse monocytes were cultured as previously described, using serum-free media (SFM). Briefly, SFM for human cells is composed of fibrolife (Lifeline, Frederick, MD), with 1× ITS-3 (Sigma, St. Louis, MO), 1× HEPES buffer (Sigma), 1× non-essential amino acids (Sigma), 1× sodium pyruvate (Sigma), and penicillin-streptomycin with glutamate (Sigma). For mice, 2× concentrations of ITS-3, HEPES buffer, non-essential amino acids, and sodium pyruvate are added. For mouse monocytes, […] beta-mercaptoenthanol (ThermoFisher) was also added, as were pro-fibrotic supplements M-CSF (25 ng/ml, Peprotech, Rocky Hill, NJ) and IL-13 (50 ng/ml). Additionally, M-CSF and IL-13 were refreshed in the media of mouse monocytes after 3 days of culture.
# Accell Silencing RNA (siRNA, Dharmacon, Lafayette, CO) is specifically engineered to penetrate cells without the use of transfection reagents, due to a cholesterol modification at one terminus of the sequence. […] Thus, Accell siRNA targets all cells in a population, not just those that are replicating. […] Lastly, Accell siRNA contains a modification that inhibits enzymatic digestion within cells. Thus, Accell siRNA made a natural choice for this experiment, and all siRNAs used in this study are Accell siRNA. siRNA was resuspended in RNAse-free ultrapure water, as per the manufacturer's instructions. […]
compound,measurement,setting,value
"α-αMβ2 (MAC1, clone CBRM1/5) (antibody)",IC50 for human monocyte-myofibroblast differentiation (de-differentiation by morphology),[1],63.3 ng/ml
O=C(COc1ccc2c(c1)OCO2)NC(=O)NCCc1c[nH]c2ccccc12 [KCH-1521],adhesion-dependent angiogenesis,talin1 and talin2,decreases adhesion-dependent angiogenesis
same,distinction between talin1 and talin2,talin1 and talin2,does not distinguish between talin1 and talin2
leukadherin,myofibroblast de-differentiation or differentiation as determined by morphology,[2],promoted myofibroblasts differentiation
same,secreted MCP1,[3]; conditioned media after 1 week (FIG. 9A),promoted the secretion of MCP1
same,secreted IL-6,[3]; conditioned media after 1 week (FIG. 9C),promoted the secretion of MCP1 (FIG. 9A) and IL-6
same,αSMA+ and collagen I+ double positive myofibroblasts,[4]; leukadherin 2 ng/ml (FIG. 2C),increased both the amount of α αSMA^+ and collagen I^+ double positive monocyte-myofibroblasts
same,talin2+ cells / talin2 concentration,[4]; leukadherin 2 ng/ml (FIG. 2D),increasing talin2 concentration in these cells
same,myofibroblast de-differentiation or differentiation by morphology,[5],increased monocyte-derived myofibroblast differentiation
same,αSMA+ collagen I+ double positive cells,[6]; flow cytometry (FIG. 1C),increased the amount of αSMA^+ collagen I^+ double positive cells
same,talin2 expression,[6]; flow cytometry (FIG. 1D),"nor integrin interaction promoters (Gi14, leukadherin) significantly altered talin2 expression"
Cc1ccc(=O)n(-c2ccccc2)c1 [pirfenidone],effect on progression of fibrosis,fibrosis,"slow, but do not reverse, the progression of fibrosis"
α-αM (clone ICRF44) (antibody),IC50 for human monocyte-myofibroblast differentiation (de-differentiation by morphology),[7],59.7 ng/ml
"talin2 siRNA #2: individual Accell siRNA against mouse talin2; target CUGGAAAAUUCAGUGAUGA (SEQ ID NO:26), antisense UCAUCACUGAAUUUUCCAG (SEQ ID NO:37) (Accell modifications, chemistry not fully specified)",mouse weight,"[8]; 200 nM by lung instillation at 7, 9, 11, 14, 16, 18 days post bleomycin, to day 21 (FIG. 29A)",showed a lesser transient weight decrease than did the controls
same,amount of collagen in the lungs (hydroxyproline assay),"[8]; 200 nM by lung instillation x6, day 21 (FIG. 29B-C)",reduced the amount of collagen in the lungs
same,blinded Ashcroft scoring of Masson's trichrome-stained lung sections,"[8]; 200 nM by lung instillation x6, day 21 (FIG. 29D)",improved the histological readout of lung fibrosis
same,lung fibrosis in Masson's trichrome images,[8]; vs non-targeting siRNA and untreated fibrotic lungs (FIG. 29E-L),rescued lung fibrosis compared to non-targeting siRNA and untreated fibrotic lungs
same,αSMA and collagen I double-positive myofibroblasts,[9]; mouse cell cultures (FIG. 28C),most reduced both αSMA and collagen I double-positive
same,talin2 positive myofibroblasts,[9]; mouse cell cultures (FIG. 28D),most reduced both αSMA and collagen I double-positive (FIG. 28C) and talin2 positive (FIG. 28D) myofibroblasts
same,αSMA and collagen I double-positive cells / myofibroblast differentiation,[10],inhibited myofibroblast differentiation by itself
COC(=O)c1ccc2c(c1)NC(=O)/C2=C(\Nc1ccc(N(C)C(=O)CN2CCN(C)CC2)cc1)c1ccccc1 [nintedanib],effect on progression of fibrosis,fibrosis,"slow, but do not reverse, the progression of fibrosis"
PRM-151: recombinant pentraxin-2,effect on progression of fibrosis,fibrosis,shown even a modest ability to reverse fibrosis in some patients

# From patent US20250319117A1, “METHODS AND COMPOSITIONS FOR TREATING FIBROSIS” (THE UNIVERSITY OF CHICAGO, priority 2021, published 2025)
